In general, EC50 refers to the concentration needed to bring the measured effect to its halfway point. Usually IC50 stands for the concentration at which inhibition is half-maximal. The clearance is the volume of plasma or blood freed of the substance per unit of time. Low values mean a low capacity for elimination, high ones a high capacity for elimination. What is called Cmax is the highest concentration seen after dosing. The term half-life denotes how long it takes for the measured level to halve. A higher half-life goes with slow decline. As usually defined, the Tmax is the time at which the peak concentration occurs. Usually AUC(0-inf) stands for total exposure, with the tail of the curve extrapolated. Low values mean low exposure, high ones high exposure. Broadly, the AUC is concentration integrated over time. Lower therefore signals less exposure.

Molecules are shown by their SMILES.

Series [1] concerns Hepatitis C virus. In words: Antiviral activity against Hepatitis C virus genotype 1b infected in human HuH7 cells in presence of 5% fetal calf serum. To be noted: Huh-7. It is filed as functional, organism-based, Hepacivirus hominis.
Series [2] is described as follows: Inhibition of Hepatitis C virus genotype 1a NS5B polymerase. More on the design: species or system Hepatitis C virus subtype 1a.
Series [3] relates to Hepatitis C virus. In words: Antiviral activity against Hepatitis C virus genotype 1a infected in human HuH7 cells in presence of 5% fetal calf serum. The class given is functional, organism-based, Hepacivirus hominis. To be noted: subtype 1a, Huh-7.
Series [4] concerns Hepatitis C virus. In words: Antiviral activity against Hepatitis C virus genotype 1b infected in human HuH7 cells in presence of 40% human plasma. It is filed as functional, organism-based, Hepacivirus hominis. To be noted: Huh-7, Plasma.
Series [5] has as its system Hepatitis C virus. The series can be described thus: Inhibition of Hepatitis C virus genotype 1b NS5B polymerase. More on the design: species or system Hepatitis C virus subtype 1b.
Series [6] can be described thus: Effective permeability of the compound by PAMPA. To be noted: read-out: Peff. The class given is ADME. Background: In PAMPA a lipid-coated filter parts donor from acceptor wells.
Series [7] is described as follows: (§1) Plasma clearance in rat at 5 mg/kg, iv. The class given is ADME, organism-based. More on the design: dose 5 mg/kg, route intravenous. As to conditions: plasma.
The nature of series [8]: (§2) Cmax in rat at 5 mg/kg, po. More on the design: dose 5 mg/kg, route oral. As to conditions: in vivo. It is filed as ADME, organism-based.
Series [9] can be described thus: (§3) Oral bioavailability in rat at 5 mg/kg. It is filed as ADME, organism-based. As to conditions: in vivo.
The nature of series [10]: Half life in rat at 5 mg/kg, iv. The class given is ADME, organism-based. More on the design: dose 5 mg/kg, route intravenous. As to conditions: in vivo.
Series [11] can be described thus: (§4) Tmax in rat at 5 mg/kg, po. It is filed as ADME, organism-based. To be noted: in vivo. More on the design: dose 5 mg/kg, route oral.
The nature of series [12]: (§5) AUC (0 to infinity) in rat at 5 mg/kg, po. It is filed as ADME, organism-based, Plasma. More on the design: dose 5 mg/kg, route oral, time infinity. To be noted: plasma.
Series [13] is described as follows: (§6) Half life in rat at 5 mg/kg, po. It is filed as ADME, organism-based. More on the design: dose 5 mg/kg, route oral. As to conditions: in vivo.
In series [14] the test system is Rattus norvegicus. Described as §1. More on the design: dose 5 mg/kg, route intravenous. It is filed as ADME, organism-based. To be noted: in vivo.
Series [15] has as its system Rattus norvegicus. Described as §2. The class given is ADME, organism-based. More on the design: dose 5 mg/kg, route oral. To be noted: in vivo.
Series [16] relates to Rattus norvegicus. Described as §3. It is filed as ADME, organism-based. To be noted: in vivo.
Series [17] has as its system Rattus norvegicus. Described as §4. The class given is ADME, organism-based. More on the design: dose 5 mg/kg, route oral. As to conditions: in vivo.
Series [18] has as its system Rattus norvegicus. The series is described as §5. It is filed as ADME, organism-based, Plasma. More on the design: dose 5 mg/kg, route oral, time infinity. As to conditions: in vivo.
The subject of series [19] is Rattus norvegicus. The description is as §6. It is filed as ADME, organism-based. More on the design: dose 5 mg/kg, route oral. To be noted: in vivo.

As to `COc1c(-c2ccc3c(c2)CC=C3CN(C)S(C)(=O)=O)cc(-n2ccc(=O)[nH]c2=O)cc1C(C)(C)C`, the EC50 with Hepatitis C virus [1] stood at 100 nM; in the series with Hepatitis C virus [3], 4 nM; in the series with Hepatitis C virus [4], 50 nM. Further, the IC50 in series [2] came to 7 nM; with Hepatitis C virus [5], 20 nM.

On to `COc1c(-c2ccc3cc(CNS(C)(=O)=O)sc3c2)cc(-n2ccc(=O)[nH]c2=O)cc1C(C)(C)C`, for which the figures for the EC50 with Hepatitis C virus [1], in the series on Hepatitis C virus [3] and in the series with Hepatitis C virus [4] were above 1000 nM, above 1000 nM and above 10000 nM, respectively. Also, the values for the IC50 (in series [2]; in the series with Hepatitis C virus [5]) were 180 nM and 245 nM, respectively. Also, the Papp in [6] stood at 0.81 ×10⁻⁶ cm/s.

Consider `COc1c(-c2ccc3c(c2)CC=C3C(C)(C)NS(C)(=O)=O)cc(-n2ccc(=O)[nH]c2=O)cc1C(C)(C)C`, for which the figures for the EC50 with Hepatitis C virus [1], with Hepatitis C virus [3] and with Hepatitis C virus [4] were above 1000 nM, 1000 nM and above 1000 nM, respectively. The IC50 turned out to be 185 nM in series [2] and 215 nM in the series on Hepatitis C virus [5]. Besides, the Papp in [6] was found to be 4.06 ×10⁻⁶ cm/s.

For the molecule `COc1c(-c2ccc3c(CNS(C)(=O)=O)noc3c2)cc(-n2ccc(=O)[nH]c2=O)cc1C(C)(C)C`, the EC50 in the series on Hepatitis C virus [1] and in the series with Hepatitis C virus [3] was above 1000 nM in each case. The IC50 came to 540 nM in [2] and 510 nM in the series with Hepatitis C virus [5].

In series [7], `COc1c(-c2ccc3c(c2)CC=C3CNS(C)(=O)=O)cc(-n2ccc(=O)[nH]c2=O)cc1C(C)(C)C` showed a clearance of 12.8 mL/min/kg. Moreover, the concentration in [8] peaked (Cmax) at 660 ng/mL. For the same molecule, in series [9], the bioavailability worked out at 86%. The EC50 in the series with Hepatitis C virus [1] came out at 3 nM; in the series on Hepatitis C virus [3], 14 nM; in the series with Hepatitis C virus [4] it was 22 nM. Moreover, the IC50 was 6 nM in series [2] and 11 nM in the series with Hepatitis C virus [5]. The half-life in series [10] was 1.9 h; in series [13], 3 h. Further, in [11], the Tmax worked out at 6.17 h. This molecule returned an AUC(0-inf) in [12] of 7200 ng·h/mL. Moreover, the Papp in series [6] came out at 5.43 ×10⁻⁶ cm/s.

With `COc1c(-c2ccc3c(CNS(C)(=O)=O)coc3c2)cc(-n2ccc(=O)[nH]c2=O)cc1C(C)(C)C`, the results for the EC50 in the series on Hepatitis C virus [1], in the series with Hepatitis C virus [3] and in the series on Hepatitis C virus [4] were 22 nM, 240 nM and 260 nM, respectively. Moreover, the IC50 in [2] worked out at 9 nM; in the series with Hepatitis C virus [5] it was 21 nM.

In the case of `COc1c(-c2ccc3nc(NS(C)(=O)=O)sc3c2)cc(-n2ccc(=O)[nH]c2=O)cc1C(C)(C)C`, the EC50 with Hepatitis C virus [1] and in the series with Hepatitis C virus [3] was above 1000 nM each time. In addition, the IC50 was found to be 19 nM in [2] and 45 nM with Hepatitis C virus [5]. Moreover, in [6], the Papp is 1.4 ×10⁻⁶ cm/s.

`COc1c(-c2ccc3c(CNS(C)(=O)=O)csc3c2)cc(-n2ccc(=O)[nH]c2=O)cc1C(C)(C)C` had a clearance in [7] of 4.5 mL/min/kg. In addition, the highest level in [8] (Cmax) was 1410 ng/mL. In addition, the bioavailability in series [9] is 41%. Also, the results for the EC50 with Hepatitis C virus [1], in the series on Hepatitis C virus [3] and in the series on Hepatitis C virus [4] were 3 nM, 27 nM and 46 nM, respectively. Also, the figures for the IC50 (in series [2]; in the series with Hepatitis C virus [5]) were 5 nM and 10 nM, respectively. Moreover, the half-life in series [10] is 3.6 h; in series [13], 3.2 h. In series [11], the Tmax came out at 0.5 h. Moreover, the AUC(0-inf) in [12] stood at 9300 ng·h/mL. In series [6], the Papp was determined as 0.81 ×10⁻⁶ cm/s.

In the case of `COc1c(-c2ccc3c(c2)CCC3(C)CNS(C)(=O)=O)cc(-n2ccc(=O)[nH]c2=O)cc1C(C)(C)C` (centres undefined), the clearance in series [7] was 10.2 mL/min/kg. Moreover, the Cmax in series [8] amounted to 1010 ng/mL. The bioavailability in [9] turned out to be 62%. The EC50 with Hepatitis C virus [1] is 89 nM; in the series with Hepatitis C virus [3], 480 nM; with Hepatitis C virus [4], 560 nM. In addition, the IC50 in [2] stood at 16 nM; in the series with Hepatitis C virus [5] it was 41 nM. For the same molecule, the half-life in series [10] is 2.3 h; in series [13], 2.4 h. For the same molecule, the Tmax in [11] came out at 0.25 h. The molecule also had an AUC(0-inf) in series [12] of 5100 ng·h/mL.

In turn, `COc1c(-c2ccc3c(c2)CC/C3=N\NS(C)(=O)=O)cc(-n2ccc(=O)[nH]c2=O)cc1C(C)(C)C` had a clearance in [7] of 19.8 mL/min/kg. The molecule also registered a Cmax in series [8] of 120 ng/mL. Moreover, in [9], the bioavailability amounted to 18%. Also, the EC50 in the series on Hepatitis C virus [1] amounted to 1 nM; in the series on Hepatitis C virus [3] it was 2 nM; in the series on Hepatitis C virus [4], 1 nM. The IC50 (in [2]; with Hepatitis C virus [5]) was 3 nM each time. Moreover, the half-life in series [10] is 2.8 h; in [13], 3 h. Further, in series [11], the Tmax worked out at 2.5 h. The AUC(0-inf) in [12] was determined as 880 ng·h/mL. Further, the Papp in series [6] came out at 0.47 ×10⁻⁶ cm/s.

On to `COc1c(C(=O)Nc2ccc(NS(C)(=O)=O)cc2)cc(N2CCC(=O)NC2=O)cc1C(C)(C)C`, for which the CL in the series with Rattus norvegicus [14] was found to be 25.5 mL/min/kg. In the series with Rattus norvegicus [15], this molecule yielded a Cmax of 30 ng/mL. In the series with Rattus norvegicus [16], the F came out at 1.4%. Besides, the EC50 in the series with Hepatitis C virus [1] stood at 27 nM; in the series with Hepatitis C virus [3] it was 51 nM; in the series with Hepatitis C virus [4], 18 nM. Besides, the values for the 50% inhibitory concentration (IC50) (in [2]; in the series on Hepatitis C virus [5]) were 11 nM and 22 nM, respectively. Besides, in series [10], the half-life was 1.1 h. Also, the Tmax with Rattus norvegicus [17] stood at 0.33 h. This molecule also had an exposure (AUC) in the series on Rattus norvegicus [18] of 500 ng·h/mL. Moreover, the t1/2 in the series with Rattus norvegicus [19] was determined as 1 h. The Papp in series [6] amounted to 0.22 ×10⁻⁶ cm/s.

For the molecule `COc1c(-c2ccc3c(c2)CCC3NNS(C)(=O)=O)cc(-n2ccc(=O)[nH]c2=O)cc1C(C)(C)C` (centres undefined), the figures for the EC50 with Hepatitis C virus [1], with Hepatitis C virus [3] and in the series with Hepatitis C virus [4] were above 100 nM, 140 nM and 950 nM, respectively. Moreover, the IC50 in [2] came to 33 nM; with Hepatitis C virus [5], 47 nM. Besides, the Papp in [6] worked out at 0.24 ×10⁻⁶ cm/s.

As to `COc1c(-c2ccc3c(c2)CCC3CNS(C)(=O)=O)cc(-n2ccc(=O)[nH]c2=O)cc1C(C)(C)C` (centres undefined), in series [7], the clearance is 7.5 mL/min/kg. Further, the peak level in [8] (Cmax) was 2360 ng/mL. Also, the bioavailability in series [9] was found to be 119%. Moreover, the EC50 in the series with Hepatitis C virus [1] came to 3 nM; in the series with Hepatitis C virus [3], 20 nM; in the series with Hepatitis C virus [4] it was 13 nM. For the same molecule, the IC50 in [2] amounted to 8 nM; with Hepatitis C virus [5], 18 nM. Further, the figures for the half-life in series [10] and in series [13] were 1.8 h and 2.3 h, respectively. For the same molecule, the Tmax in series [11] amounted to 0.33 h. In series [12], this molecule came in with an AUC(0-inf) of 13500 ng·h/mL. In addition, the Papp in series [6] was 8.93 ×10⁻⁶ cm/s.
